These results are taken from patent US20080051598A1, “Process for Production of Polysubstituted Cyclobutanes and Polysubstituted Cyclobutenes” (priority 2004, published 2008).

Test [1] has as its system cultured Plasmodium falciparum. Description: growth inhibition of malaria parasites. It counts as cell-based. The settings on record: read-out: concentration at which growth of cultured Plasmodium falciparum was 50% inhibited. As to the method:
An evaluation was conducted of growth inhibition of malaria parasites by a compound 9 derived by chemical conversion of cyclobutane compound 8 synthesized according to the present invention. As a result, the growth of cultured Plasmodium falciparum was 50% inhibited by a low concentration of 1 μM of compound 9. [drawing 60]

Test [2] deals with colon cancer cells (HCT116). Description: anti-tumor effects, growth of colon cancer cells. Conditions: concentration 25 μg/mL. It is filed as cell-based. As for the experimental part:
An evaluation was conducted of the anti-tumor effects of a compound 11 derived by chemical conversion of cyclobutane compound 10 synthesized according to the present invention. As a result, the growth of colon cancer cells (HCT116) was inhibited by a low concentration of 25 μg/mL of compound 11. [drawing 61]

The structures appear in SMILES notation.

As for `OC[C@H]1C2CCC[C@@]23CCC[C@@]13O` (some centres unmarked) [compound 9], the IC50 in test [1] stood at 1000 nM. Regarding `CC(=O)OC12CCC1(C)C1CC(C)(C)CC2C=C1C` (centres unmarked) [compound 11], the “growth of colon cancer cells (HCT116)” value in test [2] is given as “inhibited”.
